The record followed here is patent US20030083483A1, “Molecular interaction sites of vimentin RNA and methods of modulating the same” (priority 1999, published 2003).

This assay relates to 27-mer RNA corresponding to the 16S rRNA A site containing 3 dA residues. The assay is described as follows: MS-MS CID/CAD protection assay on chimeric 27-mer RNA/DNA. Format: binding, prokaryotic. Conditions: same activation energy as free RNA. The text has this:
In order to study the binding of paromomycin to the RNA of Example 20, the chimeric RNA/DNA molecule of Example 20 was synthesized using standard automated nucleic acid synthesis protocols on an automated synthesizer. A sample of this nucleic acid was then subjected to ESI followed by CID in a mass spectrometer to afford the fragmentation pattern indicating a lack of structure at the sites of dA incorporation, as described in Example 20. This indicated the accessibility of these dA sites in the structure of the chimeric nucleic acid.
Next, another sample of the chimeric nucleic acid was treated with a solution of paromomycin and the resulting mixture analyzed by ESI followed by CID using a mass spectrometer. […] This was also indicative of binding of the paromomycin to the chimeric nucleic acid, because of the increased mass of the observed ion complex. Further, there was also observed, a shift in the distribution of the multiply charged ion complexes which reflected a change in the conformation of the nucleic acid in the paromomycin-nucleic acid complex into a more compact structure. […]
The mass spectrum obtained from a 5 μM solution of C mixed with 125 nM paromomycin contains [M-5H]^5− ions from free C at m/z 1783.6 and the [M-5H]^5− ions of the paromomycin-C complex at m/z 1907.3. […] Signals from the [M-4H]^4− ions of C and the complex are detected at m/z 2229.8 and 2384.4, respectively. […]

The structures appear in SMILES notation. “Also recorded” adds a separate entry of the source.

On to `NC[C@@H]1O[C@H](O[C@H]2[C@@H](O)[C@H](O[C@@H]3[C@@H](O)[C@H](N)C[C@H](N)[C@H]3O[C@H]3O[C@H](CO)[C@@H](O)[C@H](O)[C@H]3N)O[C@@H]2CO)[C@H](N)[C@@H](O)[C@@H]1O` [Paromomycin], for which the “fragmentation at the dA sites of the ligand-RNA complex on CID/CAD” value was “no fragmentation at the dA sites; also recorded: No cleavage was found to occur; also recorded: No significant fragment ions are observed; also recorded: no fragment ions are detected”.
